According to article PMC11165727, “Improvement effects of a novel Chinese herbal formula in imiquimod and IL-23-stimulated mouse models of psoriasis” (Chinese Medicine, 2024):

Columns and labels:
[1] = tested on: gene expression of IL-4, IL-6, IL-1β and TNF-α; experiment: Real-time PCR on dorsal skin tissues of IMQ-induced mice; format: in vivo, Balb/c mice; settings: IMQ model; DXM 3 mg/kg oral
Method: (§1) A total of 48 Balb/c mice were randomly assigned to: (a) normal control group (NC); (b) IMQ group; (c) IMQ plus dexamethasone (DXM, as the positive control, 3 mg/kg) group; and (d-f) IMQ plus ISDF (3.15, 6.30 and 9.45 g/kg) groups. All mice, except the NC group, were topically dosed with 62.5 mg Aldara (iNova pharmaceuticals, Australia) daily on the shaved dorsal skin. After the seven-day sensitization of IMQ, the psoriasis symptoms appeared on the dorsal area. Between day 8 and day 22, Aldara cream was applied once every three days for a total of six applications, with each application consisting of 62.5 mg of the cream being applied to the same area. ISDF and DXM were suspended in 0.5% CMC-Na and orally given to the mice once daily for two weeks. Treatments were initiated seven days after the first IMQ sensitization. The mice in the NC group and the IMQ group were administered with only the vehicle for two weeks. (Fig. 1A).
The same experimental procedure was used as described in our previous study. In the present study, we conducted Mouse TaqMan gene expression assays using the following assay IDs: IL-4 (Mm00445259_m1), IL-6 (Mm00446190_m1), IL-1β (Mm00434228_m1), TNF-α (Mm00443258_m1) and β-actin (Mm02619580_g1).

[2] = tested on: IMQ-induced mouse psoriasis model; experiment: IMQ-induced mouse psoriasis model: body weight, dorsal skin thickness, PASI, epidermal thickness; format: in vivo, Balb/c mice
Method: as §1
(§2) The severity of psoriatic lesions on the dorsal area of mice was assessed by psoriasis area and severity index (PASI). The researcher scored the degree of erythema and skin scaling on a scale of zero to four, where 0: no symptoms, 1: slight, 2: moderate, 3: severe, and 4: very severe. The dorsal skin thickness was measured using an electronic vernier caliper which was placed on the middle line of the dorsal area.
(§3) The dorsal skin tissues were harvested and fixed in 4% paraformaldehyde (PFA) for one day and then embedded in paraffin, followed by section, deparaffinization and rehydration. Five-micrometre sections of dorsal skin were stained with hematoxylin & eosin and observed through a light microscope (Zeiss AxioObserver Z1, Germany) to assess histopathological changes.

[3] = tested on: IL-23-induced mouse psoriasis model; experiment: IL-23-induced mouse psoriasis model: body weight, dorsal skin thickness, PASI, epidermal thickness; format: in vivo, C57 mice; settings: IL-23 model, DXM 3 mg/kg oral
Method: (§4) A total of 48 C57 mice were randomly assigned to: (a) NC group; (b) IL-23 group; (c) IL-23 plus DXM (3 mg/kg) group; and (d–f) IL-23 plus ISDF (3.15, 6.30 and 9.45 g/kg) groups. Firstly, mice were pre-treated with ISDF or DXM before IL-23 injection. 0.5% CMC-Na was used to suspend ISDF and DXM which were orally given to mice once daily for two weeks, and the mice in the NC group and the IL-23 group were treated with only the vehicle for two weeks. The IL-23 administration was initiated 7 days post the first ISDF/DXM treatment. From day 8, mice concurrently orally received with ISDF/DXM treatment and intradermal injections of recombinant mouse IL-23 (Biolegend, USA) in two locations on the shaved dorsal skin at 1 μg/mouse/day using a 30-gauge needle for seven days. Sterile saline was used as the vehicle control for the NC group. After the seven-day sensitization of IL-23, the psoriasis symptoms appeared on the dorsal area of the mice. The weight of the mice and their dorsal skin thickness was monitored (on day 1, 7, and 14). On the last day, the scoring of the skin psoriasis severity was determined according to PASI after the last drug treatment (Fig. 2A).
as §2, §3

IL-17A, IL-22, IL-23 = experiment: ELISA of cytokines in serum and injected skin of IL-23-induced mice; format: in vivo, C57 mice; settings: IL-23 model; DXM 3 mg/kg oral; vs IL-23 group
Method: as §4
(§5) After the last drug treatment, blood samples were harvested and stored at room temperature for one hour, and then centrifuged at 3500 rpm for 20 min. The ELISA kits were used to collect the supernatant and determine the contents of IL-17A (ab199081), IL-22 (ab223857), IL-6 (ab222503) (Abcam, USA) and IL-23 (BMS6017, Thermo Fisher Scientific, USA). After being sacrificed, mouse skin tissues were collected, homogenized with cell extract buffer from Abcam, USA, and centrifuged at 12,000 rpm for 30 min (at 4 °C). The skin samples were analyzed for total protein contents using a […] assay kit. The concentrations of IL-4, IL-17A, IL-22 and IL-23 in the supernatant were determined.

[4] = tested on: IL-17A, IL-22, IL-6, IL-4; experiment: ELISA of inflammatory cytokines in serum and dorsal skin of IMQ-induced mice; format: in vivo, Balb/c mice; settings: IMQ model; DXM 3 mg/kg oral; vs IMQ group
Method: as §1, §5

[5] = Pharmacokinetics of ISDF in rats: baicalin in plasma; format: in vivo, Sprague–Dawley rats; settings: oral ISDF 18.90 g/kg
Method: The rats were split into two groups, with 6 animals each: (a) an untreated control group, and (b) a group that received ISDF at a dosage of 18.90 g/kg. The rats were fasted overnight but had access to distilled water. Blood samples, around 0.4 mL, were harvested from the orbital bleeding while they were under anaesthesia with isoflurane. The blood samples were collected at several time points (5, 15, 30, 60, 120, 240, 480, and 1440 min) after the oral administration of ISDF to the rats. The blood was then centrifuged at 5000 rpm for 20 min (at 4 °C) to separate the plasma (upper) and blood cells (lower). The plasma (0.2 mL) was added with […] KH2PO4 (0.2 mL) and 1 mL methanol and acetonitrile (1:1) and vortexed for 10 min to precipitate protein, and then centrifugated at 10,000 rpm for five min to collect the supernatant. The supernatant was filtered, dried under nitrogen and then re-dissolved in methanol (0.2 mL) and stored at 4 °C [18]. The HPLC method was used to identify and quantify baicalin in plasma and berberine in erythrocytes, as previously published. All the data were shown as mean ± SEM. One-way ANOVA followed by the Bonferroni test was performed using GraphPad Prism v9.0. Statistical significance between experimental groups was considered when p < 0.05. The pharmacokinetics profile of ISDF was calculated using Drug and Statistics (DAS, China) software v2.0.

[6] = Pharmacokinetics of ISDF in rats: berberine in erythrocytes; format: in vivo, Sprague–Dawley rats; settings: oral ISDF 18.90 g/kg
Method: The rats were split into two groups, with 6 animals each: (a) an untreated control group, and (b) a group that received ISDF at a dosage of 18.90 g/kg. The rats were fasted overnight but had access to distilled water. Blood samples, around 0.4 mL, were harvested from the orbital bleeding while they were under anaesthesia with isoflurane. The blood samples were collected at several time points (5, 15, 30, 60, 120, 240, 480, and 1440 min) after the oral administration of ISDF to the rats. The blood was then centrifuged at 5000 rpm for 20 min (at 4 °C) to separate the plasma (upper) and blood cells (lower). The blood cells were washed thrice with cold 0.9% saline, and then centrifuged at 3500 rpm for five min. The resulting erythrocytes were suspended in cold 0.9% saline (0.5 mL). Afterwards, the erythrocytes were mixed with an equal volume of 15% hydrochloric acid and heated at 60 ℃ for 6 h. They were then centrifugated at 12,000 rpm for 10 min to collect the supernatant, which was filtered and dried under nitrogen. Finally, it was re-dissolved with 0.2 mL methanol. The HPLC method was used to identify and quantify baicalin in plasma and berberine in erythrocytes, as previously published. All the data were shown as mean ± SEM. One-way ANOVA followed by the Bonferroni test was performed using GraphPad Prism v9.0. Statistical significance between experimental groups was considered when p < 0.05. The pharmacokinetics profile of ISDF was calculated using Drug and Statistics (DAS, China) software v2.0.

[7] = Sprague-Dawley, rat, 18.9 g/kg, read-out: Area under the curve (AUC0-∞)
[8] = Sprague-Dawley, rat, 18.9 g/kg, read-out: Mean residence time (MRT0-t)
[9] = Sprague-Dawley, rat, 18.9 g/kg, read-out: The maximum concentration (Cmax)

C[C@@H]1C[C@H]2[C@@H]3CCC4=CC(=O)C=C[C@]4(C)[C@@]3(F)[C@@H](O)C[C@]2(C)[C@@]1(O)C(=O)CO [DXM, dexamethasone]
Gene expression of IL-4, IL-6, IL-1β and TNF-α in skin [1]: substantially down-regulate | Body weight ([2]; DXM 3 mg/kg oral once daily, days 14 and 21, vs NC group): remarkable decrease | Decrease in PASI score ([2]; DXM 3 mg/kg oral, day 21, vs IMQ group): 79.41% | Reduction of dorsal skin thickness ([2]; DXM 3 mg/kg oral, two-week treatment, vs IMQ group): 51.69% | Decrease of epidermal thickness ([2]; DXM 3 mg/kg oral, vs IMQ group): 52.75% | Body weight [3]: significantly induced a body weight reduction | Decrease of dorsal skin thickness ([3]; day 14, vs IL-23 group): 55.14% | Reduction of PASI score ([3]; day 14, vs IL-23 group): 85.24% | Decrease of epidermal thickness ([3]; vs IL-23 group): 72.26% | Decrease of IL-23 level in the injected skin (IL-17A, IL-22, IL-23): 43.34% | Reduction of serum IL-17A (IL-17A, IL-22, IL-23): 62.20% | Reduction of serum IL-22 content (IL-17A, IL-22, IL-23): 39.12% | Decrease of serum IL-17A [4]: 91.29% | Reduction of IL-17A content in dorsal skin [4]: 75.98% | Reduction of serum IL-6 [4]: 88.91% | Reduction of serum IL-22 [4]: 67.47%

O=C(O)[C@H]1O[C@@H](Oc2cc3oc(-c4ccccc4)cc(=O)c3c(O)c2O)[C@H](O)[C@@H](O)[C@@H]1O [Baicalin, baicalin]
AUC(0-inf) [5, 7]: 10000 ± 810 ng·h/mL | MRT last [5, 8]: 7.98 ± 0.61 h | Cmax [5, 9]: 670 ± 60 ng/mL | The time required for drug concentration to decrease by 50% (t1/2) [5]: 14.06 ± 3.25 h | Time to reach Cmax (Tmax) [5]: 2.01 ± 0.28 h

COc1ccc2cc3[n+](cc2c1OC)CCc1cc2c(cc1-3)OCO2 [Berberine, berberine]
AUC(0-inf) [6, 7]: 24200 ± 17400 ng·h/mL | MRT last [6, 8]: 9.24 ± 1.31 h | Cmax [6, 9]: 1440 ± 710 ng/mL | The time required for drug concentration to decrease by 50% (t1/2) [6]: 10.77 ± 5.80 h | Time to reach Cmax (Tmax) [6]: 2.33 ± 1.52 h
